From US20060003016A1, “Therapeutic method for endolymphatic hydrops associated diseases” (priority 2004, published 2006)
Like-named read-outs stand apart in the source and are kept apart here.

Tested on: patients with Meniere's disease and endolymphatic hydrops associated diseases
Conditions: for hearing level: case 4, right ear
Text: In the present case who could be followed up for more than 24 months after treatment with water intake, the therapeutic effect was judged by using the criteria of AAO-HNS (1995)^14), 15). Proviso that in an examination on changes of the hearing, although the criteria in the four-frequency pure-tone averages (PTA) of AAO-HNS (1995)^14) adopted mean values of the hearing levels consisting of 500 Hz, 1000 Hz, 2000 Hz and 3000 Hz, in our case, the value of 4000 Hz was used in stead of that of 3000 Hz.
In each figure, a horizontal axis indicates frequency (Hz) and a vertical axis indicates hearing level. […] A graph in the upper position indicates better hearing level.

O [water intake, water]
25 dB: hearing level after treatment (case 1, right ear, 8000 Hz, Aug. 29, 2003, water intake 2 lit./day, before 15 dB) | hearing level after treatment (case 3, left ear, 125 Hz, Jun. 7, 2002, poorest level 18-24 months after treatment, water intake, before 40 dB) | hearing level (125 Hz, Aug. 2003, water intake 1.5 lit./day) | hearing level (125 Hz, Dec. 2003, water intake 1.5 lit./day) | hearing level (125 Hz, Jan. 2004, water intake 1.5 lit./day) | hearing level (125 Hz, Nov. 2003, water intake 1.5 lit./day) | hearing level (250 Hz, Aug. 2003, water intake 1.5 lit./day) | hearing level (250 Hz, Dec. 2003, water intake 1.5 lit./day) | hearing level (250 Hz, Jan. 2004, water intake 1.5 lit./day) | hearing level (500 Hz, Aug. 2003, water intake 1.5 lit./day) | hearing level (500 Hz, Oct. 2003, water intake 1.5 lit./day) | hearing level (1000 Hz, Dec. 2003, water intake 1.5 lit./day) | hearing level (1000 Hz, Jan. 2004, water intake 1.5 lit./day) | hearing level (1000 Hz, Oct. 2003, water intake 1.5 lit./day) | hearing level (2000 Hz, Jun. 2003, water intake 1.5 lit./day from Jun. 20, 2003)
7.5 dB: hearing level after treatment, average (500-4000 Hz) (case 3, left ear, Jun. 7, 2002, poorest level 18-24 months after treatment, water intake, before 23.75 dB)
15 dB: hearing level after treatment (case 1, right ear, 500 Hz, Aug. 29, 2003, water intake 2 lit./day, before 45 dB) | hearing level after treatment (case 1, right ear, 1000 Hz, Aug. 29, 2003, water intake 2 lit./day, before 50 dB) | hearing level after treatment (case 1, right ear, 2000 Hz, Aug. 29, 2003, water intake 2 lit./day, before 35 dB) | hearing level after treatment (case 3, left ear, 500 Hz, Jun. 7, 2002, poorest level 18-24 months after treatment, water intake, before 25 dB) | hearing level after treatment (case 3, left ear, 8000 Hz, Jun. 7, 2002, poorest level 18-24 months after treatment, water intake, before 80 dB) | hearing level (500 Hz, Dec. 2003, water intake 1.5 lit./day)
13.75 dB: hearing level after treatment, average (500-4000 Hz) (case 1, right ear, Aug. 29, 2003, water intake 2 lit./day, before 35 dB)
30 dB: hearing level (125 Hz, Jun. 2003, water intake 1.5 lit./day from Jun. 20, 2003) | hearing level (125 Hz, Oct. 2003, water intake 1.5 lit./day) | hearing level (125 Hz, Sep. 2003, water intake 1.5 lit./day) | hearing level (250 Hz, Oct. 2003, water intake 1.5 lit./day) | hearing level (1000 Hz, Aug. 2003, water intake 1.5 lit./day) | hearing level (1000 Hz, Nov. 2003, water intake 1.5 lit./day) | hearing level (4000 Hz, Aug. 2003, water intake 1.5 lit./day) | hearing level (4000 Hz, Dec. 2003, water intake 1.5 lit./day)
10 dB: hearing level after treatment (case 1, right ear, 4000 Hz, Aug. 29, 2003, water intake 2 lit./day, before 10 dB)
5 dB: hearing level after treatment (case 1, right ear, 250 Hz, Aug. 29, 2003, water intake 2 lit./day, before 45 dB) | hearing level after treatment (case 3, left ear, 1000 Hz, Jun. 7, 2002, poorest level 18-24 months after treatment, water intake, before 15 dB) | hearing level after treatment (case 3, left ear, 2000 Hz, Jun. 7, 2002, poorest level 18-24 months after treatment, water intake, before 10 dB) | hearing level after treatment (case 3, left ear, 4000 Hz, Jun. 7, 2002, poorest level 18-24 months after treatment, water intake, before 45 dB)
40 dB: hearing level (250 Hz, Sep. 2003, water intake 1.5 lit./day) | hearing level (500 Hz, Jun. 2003, water intake 1.5 lit./day from Jun. 20, 2003) | hearing level (500 Hz, Sep. 2003, water intake 1.5 lit./day) | hearing level (2000 Hz, Sep. 2003, water intake 1.5 lit./day)
0 dB: hearing level after treatment (case 1, right ear, 125 Hz, Aug. 29, 2003, water intake 2 lit./day, before 45 dB)
improved: category of change of hearing, AAO-HNS (1995) criteria (case 3, water intake)
35 dB: hearing level (250 Hz, Jun. 2003, water intake 1.5 lit./day from Jun. 20, 2003)
20 dB: hearing level after treatment (case 3, left ear, 250 Hz, Jun. 7, 2002, poorest level 18-24 months after treatment, water intake, before 25 dB) | hearing level (250 Hz, Nov. 2003, water intake 1.5 lit./day) | hearing level (500 Hz, Jan. 2004, water intake 1.5 lit./day) | hearing level (500 Hz, Nov. 2003, water intake 1.5 lit./day) | hearing level (2000 Hz, Aug. 2003, water intake 1.5 lit./day) | hearing level (2000 Hz, Dec. 2003, water intake 1.5 lit./day) | hearing level (2000 Hz, Jan. 2004, water intake 1.5 lit./day) | hearing level (2000 Hz, Nov. 2003, water intake 1.5 lit./day) | hearing level (2000 Hz, Oct. 2003, water intake 1.5 lit./day)
50 dB: hearing level (125 Hz, Jul. 2003, water intake 1.5 lit./day) | hearing level (1000 Hz, Jul. 2003, water intake 1.5 lit./day) | hearing level (1000 Hz, Jun. 2003, water intake 1.5 lit./day from Jun. 20, 2003)
16.25 dB: hearing improved as compared with before the treatment (four-frequency PTA) (case 3, left ear, water intake)
45 dB: hearing level (250 Hz, Jul. 2003, water intake 1.5 lit./day) | hearing level (500 Hz, Jul. 2003, water intake 1.5 lit./day) | hearing level (1000 Hz, Sep. 2003, water intake 1.5 lit./day) | hearing level (2000 Hz, Jul. 2003, water intake 1.5 lit./day)
